Assay results taken from PubChem BioAssay AID342 (DTP/NCI, 2004).
Several values for one entry are separate records, joined by “and”; a condition that tells them apart may be missing. Equal entries are not always repeated.

Tested on: Swiss mice, Sarcoma 180 sc, mean tumor weight T/C
Assay: NCI In Vivo Anticancer Drug Screen. Data for tumor model Sarcoma 180 (subcutaneous) in Swiss mice
Settings: endpoint: mean tumor weight, higher = larger tumour
Method in brief: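 Tumor-bearing mice, transplantable tumor; readout survival or tumor size; result = T/C, treated vs vehicle control.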

[1] = dose: 125.0 mg/kg/injection, schedule: Q01DX007 (ip), vehicle: saline

CC1=NCCc2c1cc1c([nH]c3ccccc31)c2C
T/C (dose: 25.0 mg/kg/injection, schedule: Q01DX007 (ip), vehicle: water): 108 % of control | T/C (dose: 50.0 mg/kg/injection, schedule: Q01DX007 (ip), vehicle: water): 91 % of control | T/C (dose: 100.0 mg/kg/injection, schedule: Q01DX007 (ip), vehicle: water): 72 % of control | T/C (dose: 200.0 mg/kg/injection, schedule: Q01DX007 (ip), vehicle: water): 28 % of control

Nc1nc(N)c2[nH]cnc2n1
T/C (dose: 6.25 mg/kg/injection, schedule: Q#A X014 (ip), vehicle: carboxymethylcellulose (CMC)): 106 % of control | T/C (dose: 11.25 mg/kg/injection, schedule: Q#A X014 (ip), vehicle: carboxymethylcellulose (CMC)): 103 % of control | T/C (dose: 22.5 mg/kg/injection, schedule: Q#A X014 (ip), vehicle: carboxymethylcellulose (CMC)): 83 % of control | T/C (dose: 25.0 mg/kg/injection, schedule: Q#A X014 (ip), vehicle: carboxymethylcellulose (CMC)): 121 % of control | T/C (dose: 45.0 mg/kg/injection, schedule: Q#A X014 (ip), vehicle: carboxymethylcellulose (CMC)): 68 % of control | T/C (dose: 90.0 mg/kg/injection, schedule: Q#A X014 (ip), vehicle: carboxymethylcellulose (CMC)): 48 % of control

CCCCN(C)N=Nc1ccc(CCCC(=O)OCC)cc1
T/C [1]: 62 % of control | T/C (dose: 200.0 mg/kg/injection, schedule: Q01DX007 (ip), vehicle: saline): 40 % of control

C[N+]1(CCC[N+]2(C)CC3C4C=CC(CC4)C3C2)CCOCC1 (stereo not drawn)
T/C (dose: 7.75 mg/kg/injection, schedule: Q01DX007 (ip), vehicle: saline): 62 % of control | T/C (dose: 15.5 mg/kg/injection, schedule: Q01DX007 (ip), vehicle: saline): 52 % of control | T/C (dose: 31.0 mg/kg/injection, schedule: Q01DX007 (ip), vehicle: saline): 86 % of control | T/C (dose: 62.0 mg/kg/injection, schedule: Q01DX007 (ip), vehicle: saline): 45 % of control

N=C(c1nsnc1N)N1CCCC1
T/C [1]: 100 % of control

O=C(O)CCC(=O)CCl
T/C (dose: 6.2 mg/kg/injection, schedule: Q01DX007 (ip), vehicle: saline): 76 % of control | T/C (dose: 9.3 mg/kg/injection, schedule: Q01DX007 (ip), vehicle: saline): 57 % of control | T/C (dose: 14.0 mg/kg/injection, schedule: Q01DX007 (ip), vehicle: saline): 57 % of control | T/C (dose: 21.0 mg/kg/injection, schedule: Q01DX007 (ip), vehicle: saline): 46 % of control and 55 % of control | T/C (dose: 30.0 mg/kg/injection, schedule: Q01DX007 (ip), vehicle: saline): 31 % of control

c1ccn(-c2nc(-n3cccc3)nc(-n3cccc3)n2)c1
T/C (dose: 31.25 mg/kg/injection, schedule: Q#A X014 (ip), vehicle: carboxymethylcellulose (CMC)): 47 % of control | T/C (dose: 62.5 mg/kg/injection, schedule: Q#A X014 (ip), vehicle: carboxymethylcellulose (CMC)): 43 % of control | T/C (dose: 125.0 mg/kg/injection, schedule: Q#A X014 (ip), vehicle: carboxymethylcellulose (CMC)): 46 % of control

C=CCOc1ccc2c(c1)CC[C@@H]1[C@@H]2CC[C@@]2(C)[C@H]1CC[C@]2(C)O
T/C (dose: 0.5 mg/kg/injection, schedule: Q#A X014 (sc), vehicle: steriod suspending solution): 80 % of control | T/C (dose: 5.0 mg/kg/injection, schedule: Q#A X014 (sc), vehicle: steriod suspending solution): 116 % of control | T/C (dose: 50.0 mg/kg/injection, schedule: Q#A X014 (sc), vehicle: steriod suspending solution): 71 % of control

COC(=O)C1=CO[C@H](C)[C@@H]2CN3CCc4c([nH]c5ccccc45)[C@@H]3C[C@H]12
T/C (dose: 12.5 mg/kg/injection, schedule: Q01DX007 (ip), vehicle: carboxymethylcellulose (CMC)): 110 % of control | T/C (dose: 25.0 mg/kg/injection, schedule: Q01DX007 (ip), vehicle: carboxymethylcellulose (CMC)): 83 % of control | T/C (dose: 50.0 mg/kg/injection, schedule: Q01DX007 (ip), vehicle: carboxymethylcellulose (CMC)): 84 % of control | T/C (dose: 100.0 mg/kg/injection, schedule: Q01DX007 (ip), vehicle: carboxymethylcellulose (CMC)): 98 % of control

CCN(CC)CCNc1ccc([N+](=O)[O-])c2sc3ccccc3c(=O)c12
T/C (dose: 14.0 mg/kg/injection, schedule: Q#A X014 (ip), vehicle: saline): 71 % of control | T/C (dose: 21.0 mg/kg/injection, schedule: Q#A X014 (ip), vehicle: saline): 65 % of control | T/C (dose: 31.5 mg/kg/injection, schedule: Q#A X014 (ip), vehicle: saline): 65 % of control | T/C (dose: 47.5 mg/kg/injection, schedule: Q#A X014 (ip), vehicle: saline): 34 % of control

Clc1ccc(C[P+](c2ccccc2)(c2ccccc2)c2ccccc2)cc1Cl
T/C (dose: 3.6 mg/kg/injection, schedule: Q01DX007 (ip), vehicle: carboxymethylcellulose (CMC)): 66 % of control and 69 % of control | T/C (dose: 5.3 mg/kg/injection, schedule: Q01DX007 (ip), vehicle: carboxymethylcellulose (CMC)): 63 % of control and 71 % of control | T/C (dose: 8.0 mg/kg/injection, schedule: Q01DX007 (ip), vehicle: carboxymethylcellulose (CMC)): 46 % of control

CCC(=O)OCC1OC(n2cnc3c(=S)nc(N)[nH]c32)C(OC(=O)CC)C1OC(=O)CC (stereo not drawn)
T/C (dose: 1.0 mg/kg/injection, schedule: Q01DX007 (ip), vehicle: carboxymethylcellulose (CMC)): 61 % of control | T/C (dose: 2.0 mg/kg/injection, schedule: Q01DX007 (ip), vehicle: carboxymethylcellulose (CMC)): 65 % of control | T/C (dose: 5.0 mg/kg/injection, schedule: Q01DX007 (ip), vehicle: carboxymethylcellulose (CMC)): 57 % of control and 58 % of control | T/C (dose: 11.0 mg/kg/injection, schedule: Q01DX007 (ip), vehicle: carboxymethylcellulose (CMC)): 22 % of control

CN(C)[C@@H]1C(=O)C(C(=O)NCNCCCC(=O)O)=C(O)[C@@]2(O)C(=O)C3=C(O)c4c(O)cccc4[C@@](C)(O)[C@H]3C[C@@H]12
T/C (dose: 111.0 mg/kg/injection, schedule: Q#A X014 (ip), vehicle: saline): 97 % of control and 112 % of control | T/C (dose: 166.5 mg/kg/injection, schedule: Q#A X014 (ip), vehicle: saline): 101 % of control and 105 % of control | T/C (dose: 250.0 mg/kg/injection, schedule: Q#A X014 (ip), vehicle: saline): 52 % of control

CC1CCOS(=O)O1 (stereo not drawn)
T/C (dose: 6.25 mg/kg/injection, schedule: Q01DX007 (ip), vehicle: olive oil, sesame oil, peanut oil): 67 % of control | T/C (dose: 6.25 mg/kg/injection, schedule: Q01DX007 (ip), vehicle: propolene glycol): 62 % of control | T/C (dose: 6.25 mg/kg/injection, schedule: Q01DX007 (oral), vehicle: olive oil, sesame oil, peanut oil): 81 % of control | T/C (dose: 6.25 mg/kg/injection, schedule: Q01DX007 (sc), vehicle: olive oil, sesame oil, peanut oil): 81 % of control | T/C (dose: 12.5 mg/kg/injection, schedule: Q01DX007 (ip), vehicle: olive oil, sesame oil, peanut oil): 85 % of control | T/C (dose: 12.5 mg/kg/injection, schedule: Q01DX007 (ip), vehicle: propolene glycol): 55 % of control | T/C (dose: 12.5 mg/kg/injection, schedule: Q01DX007 (oral), vehicle: olive oil, sesame oil, peanut oil): 106 % of control | T/C (dose: 12.5 mg/kg/injection, schedule: Q01DX007 (oral), vehicle: propolene glycol): 74 % of control | T/C (dose: 12.5 mg/kg/injection, schedule: Q01DX007 (sc), vehicle: olive oil, sesame oil, peanut oil): 97 % of control | T/C (dose: 25.0 mg/kg/injection, schedule: Q01DX007 (ip), vehicle: olive oil, sesame oil, peanut oil): 75 % of control | T/C (dose: 25.0 mg/kg/injection, schedule: Q01DX007 (ip), vehicle: propolene glycol): 62 % of control | T/C (dose: 25.0 mg/kg/injection, schedule: Q01DX007 (oral), vehicle: olive oil, sesame oil, peanut oil): 79 % of control | T/C (dose: 25.0 mg/kg/injection, schedule: Q01DX007 (oral), vehicle: propolene glycol): 80 % of control | T/C (dose: 25.0 mg/kg/injection, schedule: Q01DX007 (sc), vehicle: olive oil, sesame oil, peanut oil): 65 % of control | T/C (dose: 36.0 mg/kg/injection, schedule: Q01DX007 (ip), vehicle: carboxymethylcellulose (CMC)): 102 % of control | T/C (dose: 50.0 mg/kg/injection, schedule: Q01DX007 (ip), vehicle: olive oil, sesame oil, peanut oil): 48 % of control | T/C (dose: 50.0 mg/kg/injection, schedule: Q01DX007 (ip), vehicle: propolene glycol): 56 % of control | T/C (dose: 50.0 mg/kg/injection, schedule: Q01DX007 (oral), vehicle: olive oil, sesame oil, peanut oil): 71 % of control | T/C (dose: 50.0 mg/kg/injection, schedule: Q01DX007 (oral), vehicle: propolene glycol): 81 % of control | T/C (dose: 50.0 mg/kg/injection, schedule: Q01DX007 (sc), vehicle: olive oil, sesame oil, peanut oil): 66 % of control | T/C (dose: 54.0 mg/kg/injection, schedule: Q01DX007 (ip), vehicle: carboxymethylcellulose (CMC)): 84 % of control | T/C (dose: 81.0 mg/kg/injection, schedule: Q01DX007 (ip), vehicle: carboxymethylcellulose (CMC)): 57 % of control

O=c1[nH]c(=O)c2[nH]c(N=Nc3ccc(N(CCCl)CCCl)cc3)nc2[nH]1
T/C (dose: 6.25 mg/kg/injection, schedule: Q#A X014 (ip), vehicle: saline): 97 % of control | T/C (dose: 12.5 mg/kg/injection, schedule: Q#A X014 (ip), vehicle: saline): 72 % of control | T/C (dose: 25.0 mg/kg/injection, schedule: Q#A X014 (ip), vehicle: saline): 85 % of control | T/C (dose: 50.0 mg/kg/injection, schedule: Q#A X014 (ip), vehicle: saline): 34 % of control and 49 % of control | T/C (dose: 100.0 mg/kg/injection, schedule: Q#A X014 (ip), vehicle: saline): 36 % of control
